Source: patent publication EP4026700A1, “INPRINTING” (Smart Coloring GmbH, priority 2021, dated 2022)

Assay: Solubility in double distilled water
Format: physicochemical

solubility in double distilled water: about 14 mg/l
Substance: Disperse Blue 56
